{"source": "paper PMC8347709", "about": "(International Journal of Molecular Sciences, 2021)", "key": {"[1]": {"assay": "LogD7.4 by shake-flask method", "assay_type": "physicochemical", "conditions": "n-octanol/phosphate-buffered saline, n-octanol/PBS pH 7.4, room temperature", "method": "The measurement was performed twice in triplicate."}, "[2]": {"biological_target": "T1, CB2R in rat spleen tissue (Rattus norvegicus, UniProt Q9QZN9)", "T1 construct": "from tissue; host or cells: rat spleen cryosections (female SPRD rat)", "T1 sequence (Q9QZN9 1-360)": "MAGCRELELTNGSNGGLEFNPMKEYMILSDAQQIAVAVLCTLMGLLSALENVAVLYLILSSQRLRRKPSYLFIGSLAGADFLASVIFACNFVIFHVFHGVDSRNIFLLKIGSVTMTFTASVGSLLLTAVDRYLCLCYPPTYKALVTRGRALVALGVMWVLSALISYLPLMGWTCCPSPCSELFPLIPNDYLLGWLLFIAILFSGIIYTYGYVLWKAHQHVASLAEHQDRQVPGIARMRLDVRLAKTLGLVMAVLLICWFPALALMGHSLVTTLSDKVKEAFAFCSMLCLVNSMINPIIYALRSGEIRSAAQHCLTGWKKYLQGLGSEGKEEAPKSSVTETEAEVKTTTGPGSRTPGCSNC", "assay": "in vitro autoradiography on rat spleen cryosections", "conditions": "10 µm cryosections, female SPRD rats; nonspecific binding with GW405833", "method": "The in vitro autoradiographic experiments were performed according to a previously published protocol. […] Afterwards, the samples were washed, exposed to imaging plates (Fuji Photo Film, Co. Ltd., Tokyo, Japan), and eventually scanned using a HD-CR 35 scanner (raytest Isotopenmessgeraete GmbH, Straubenhardt, Germany). The scan data were visualised and processed by computer-assisted microdensitometry (Aida version 2.31, raytest Isotopenmessgeräte GmbH, Straubenhardt, Germany).\nFigure S1. […] Cryosections (10 µm;\n(nonspecific binding; (B) for 60 min. […]"}, "[3]": {"assay": "quantification of radiometabolites in vivo", "conditions": "female CD-1 mice, 30 min p.i.", "method": "Radiochemical yield, radiochemical purity and analyses of plasma and brain samples were assessed via reversed-phase HPLC (RP-HPLC) in gradient mode (0–10 min: 10% MeCN/20 mM NH4OAcaq., 10–30 min: 10%→90% MeCN/20 mM NH4OAcaq., 30–35 min: 90% MeCN/20 mM NH4OAcaq., 35–36 min: 90%→10% MeCN/20 mM NH4OAcaq. 36–45 min: 10% MeCN/20 mM NH4OAcaq.).\nAt 30 min p.i., the animals were anaesthetised and blood was withdrawn by retrobulbar bleeding using glass capillaries. Immediately afterwards, the animals were euthanised by cervical dislocation, and released urine was sampled. Blood plasma was obtained from the whole blood sample by centrifugation (2 min, 8000 rpm, room temperature). In addition, the brain and spleen were isolated and homogenised in 1 mL demineralised water on ice (1000 rpm, 10 strokes; glass vessel, PTFE plunger; Potter S, B. Braun Biotech International, Göttingen, Germany).\nThe samples were further processed for subsequent radio-chromatographic analyses. Two consecutive extractions were performed as duplicates for plasma and brain determinations. Plasma, brain and spleen samples were added to an ice-cold MeOH/H2O mixture (9:1, v/v). The samples were vortexed for 3 min, incubated on ice for 5 min and centrifuged at 10,000 rpm for 5 min. Supernatants were collected, and the precipitates were re-dissolved in 100 µL of extraction solvent, and the extraction procedure was repeated. The activities of supernatants and precipitates were measured in a γ-counter (1480 WIZARD, Fa. Perkin Elmer, Turku, Finland), and the extraction efficiencies were calculated as the ratio of radioactivity in the supernatant to the radioactivity in the original sample (supernatant + precipitate). The supernatants from both extractions were combined, concentrated at 70 °C under argon stream up to a remaining volume of 100 µL, and subsequently analysed by analytical radio-HPLC with a gradient system (see quality control section)."}, "hCB2R(D80N)": {"biological_target": "T2, hCB2R(D80N) (Homo sapiens, UniProt P34972, D80N)", "T2 construct": "expressed in transfected cells; host or cells: rat striatal cells transduced in vivo with AAV2/7-CaMKII0.4-intron-hCB2R D80N", "T2 sequence (P34972 whole entry D80N)": "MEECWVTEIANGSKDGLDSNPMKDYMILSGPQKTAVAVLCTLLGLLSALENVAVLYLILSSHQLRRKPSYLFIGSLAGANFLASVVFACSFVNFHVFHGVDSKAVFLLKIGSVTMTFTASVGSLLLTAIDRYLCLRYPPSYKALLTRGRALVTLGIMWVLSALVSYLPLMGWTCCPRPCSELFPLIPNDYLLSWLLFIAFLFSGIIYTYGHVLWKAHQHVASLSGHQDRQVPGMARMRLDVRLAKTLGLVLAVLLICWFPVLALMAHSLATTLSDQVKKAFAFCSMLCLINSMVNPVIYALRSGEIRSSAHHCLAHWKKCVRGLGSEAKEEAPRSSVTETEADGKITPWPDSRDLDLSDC", "assay": "PET in rat model with local overexpression of hCB2R(D80N) in the right striatum", "assay_type": "in vivo", "design": "reduction of the AUC20–60min by displacement: concentration or dose not given beside the values", "conditions": "for time to peak: TAC; for reduction of the AUC20–60min by displacement: GW405833 i.v. at 20 min p.i.; for change of AUC40–60min by displacement versus vehicle: GW405833 5 mg/kg i.v. 20 min after tracer", "source_text": "For the uptake studies into the spleen three male Wistar Hun rats (Janvier Laboratories, Le Genest Saint Isle, France) weighing 268 ± 56 g were used. For the uptake studies into the brain, five female Wistar rats weighing 263 ± 13 g carrying the stereotactically injected AAV 2/7-CaMKII0.4-intron-hCB2R D80N (right striatum) and AAV2/7-CaMKII0.4-intron-3flag-eGFP (contralateral, left striatum). Animals were initially anaesthetised with 5% isoflurane and placed on a thermostatically heated animal bed where anaesthesia was maintained with 2% isoflurane in 60% oxygen/38% room air. […] List-mode PET data were binned as a series of attenuation-corrected sinogram frames (12 × 10 s, 6 × 30 s, 5 × 60 s and 10 × 300 s) and were reconstructed by ordered subset expectation maximisation (OSEM3D) with four iterations, six subsets and a voxel size of 0.4 mm^3 (Nucline v2.01, Mediso, Hungary). The analysis of reconstructed datasets was performed with PMOD software (v4.103, PMOD Technologies LLC, Zurich, Switzerland). Non-parametrical analyses of achieved time-activity curves (TACs) were performed with Microsoft Excel to determine the time to peak, the TAC peak value and the area-under-the-zero-momentum curve (AUC):(1) AUC0−tx=∫0txcradioactivity × dt where c (radioactivity) is expressed as a standardised uptake value normalised to the bodyweight in g (SUV), the area-under-first-momentum curve (AUMC):(2) AUMC0−tx=∫0txt × cradioactivity × dt and the mean residence time (MRT):(3) MRT=AUMC0−tx/AUC0−tx"}, "[4]": {"conditions": "hCB2R D80N-to-cerebellum, vehicle (10 min prior tracer), n = 3"}, "[5]": {"conditions": "hCB2R D80N-to-contralateral, vehicle (10 min prior tracer), n = 3"}, "[6]": {"conditions": "same rat model, comparator data ref 68"}}, "note": "Where “and” joins values, the source holds several entries; their conditions need not be identical. Equal entries are not always repeated."}
{"smiles": "C[C@H]1CC[C@@H](NC(=O)c2cc3cccnc3n(CCCC[18F])c2=O)CC1", "note": "[[^18F]LU14]", "values": [{"measurement": "logD", "setting": "[1]", "value": "3.15 ± 0.25"}, {"measurement": "specific binding in spleen autoradiography", "setting": "[2]", "value": "no or low specific binding"}, {"measurement": "intact tracer in spleen (of the total activity detected)", "setting": "[3]", "value": "50 ± 10", "unit": "%"}, {"measurement": "intact tracer in the brain", "setting": "[3]", "value": "82 ± 5% and > 80% and 82%"}, {"measurement": "unchanged tracer in plasma", "setting": "[3]; radio-HPLC", "value": "17 ± 2% and 17%"}, {"measurement": "time to peak", "setting": "hCB2R(D80N); cerebellum", "value": "1.6 ± 1.4", "unit": "min"}, {"measurement": "time to peak", "setting": "hCB2R(D80N); contralateral region", "value": "3.8 ± 1.6", "unit": "min"}, {"measurement": "time to peak", "setting": "hCB2R(D80N); hCB2R(D80N) right striatum, rats, i.v., n = 3", "value": "7.4 ± 2.8", "unit": "min"}, {"measurement": "AUC", "setting": "hCB2R(D80N); cerebellum", "value": "41.1 ± 5.6", "unit": "SUV × min"}, {"measurement": "AUMC", "setting": "hCB2R(D80N); cerebellum", "value": "819 ± 132", "unit": "SUV × min^2"}, {"measurement": "MRT", "setting": "hCB2R(D80N); cerebellum", "value": "19.9 ± 1.2", "unit": "min"}, {"measurement": "TAC peak value", "setting": "hCB2R(D80N); cerebellum", "value": "2.7 ± 0.0", "unit": "SUV"}, {"measurement": "reduction of the AUC20–60min by displacement", "setting": "hCB2R(D80N); compared to the cerebellum", "value": 76, "unit": "%"}, {"measurement": "reduction of the AUC20–60min by displacement", "setting": "hCB2R(D80N); compared to the contralateral region", "value": 73, "unit": "%"}, {"measurement": "AUC", "setting": "hCB2R(D80N); contralateral region", "value": "42.6 ± 6.8", "unit": "SUV × min"}, {"measurement": "AUMC", "setting": "hCB2R(D80N); contralateral region", "value": "854 ± 165", "unit": "SUV × min^2"}, {"measurement": "MRT", "setting": "hCB2R(D80N); contralateral region", "value": "20.0 ± 1.1", "unit": "min"}, {"measurement": "TAC peak value", "setting": "hCB2R(D80N); contralateral region", "value": "2.2 ± 0.4", "unit": "SUV"}, {"measurement": "change of AUC40–60min by displacement versus vehicle", "setting": "hCB2R(D80N); hCB2R D80N-to-cerebellum", "value": "−76.3", "unit": "%"}, {"measurement": "AUC40–60min (CI95%)", "setting": "hCB2R(D80N); hCB2R D80N-to-cerebellum, displacement by GW405833 5 mg/kg i.v. 20 min after tracer, n = 2", "value": "51 (42 to 60) SUVr × min"}, {"measurement": "AUC0–20min (CI95%)", "setting": "hCB2R(D80N); hCB2R D80N-to-cerebellum, displacement group (GW405833 5 mg/kg i.v. 20 min after tracer), n = 2", "value": "49 (40 to 59) SUVr × min"}, {"measurement": "AUC0–20min (CI95%)", "setting": "hCB2R(D80N); [4]", "value": "44 (39 to 48) SUVr × min"}, {"measurement": "AUC40–60min (CI95%)", "setting": "hCB2R(D80N); [4]", "value": "215 (190 to 241) SUVr × min"}, {"measurement": "change of AUC40–60min by displacement versus vehicle", "setting": "hCB2R(D80N); hCB2R D80N-to-contralateral", "value": "−73.4", "unit": "%"}, {"measurement": "AUC40–60min (CI95%)", "setting": "hCB2R(D80N); hCB2R D80N-to-contralateral, displacement by GW405833 5 mg/kg i.v. 20 min after tracer, n = 2", "value": "56 (50 to 62) SUVr × min"}, {"measurement": "AUC0–20min (CI95%)", "setting": "hCB2R(D80N); hCB2R D80N-to-contralateral, displacement group (GW405833 5 mg/kg i.v. 20 min after tracer), n = 2", "value": "48 (41 to 54) SUVr × min"}, {"measurement": "AUC0–20min (CI95%)", "setting": "hCB2R(D80N); [5]", "value": "40 (37 to 42) SUVr × min"}, {"measurement": "AUC40–60min (CI95%)", "setting": "hCB2R(D80N); [5]", "value": "210 (190 to 231) SUVr × min"}, {"measurement": "AUC", "setting": "hCB2R(D80N); hCB2R(D80N) right striatum", "value": "155 ± 28", "unit": "SUV × min"}, {"measurement": "AUMC", "setting": "hCB2R(D80N); hCB2R(D80N) right striatum", "value": "4349 ± 701", "unit": "SUV × min^2"}, {"measurement": "MRT", "setting": "hCB2R(D80N); hCB2R(D80N) right striatum", "value": "28.0 ± 0.4", "unit": "min"}, {"measurement": "TAC peak value", "setting": "hCB2R(D80N); hCB2R(D80N) right striatum", "value": "3.3 ± 0.6", "unit": "SUV"}, {"measurement": "uptake in the brain region with CB2R overexpression compared to [11C]NE40", "setting": "hCB2R(D80N); [6]", "value": "about two-fold"}, {"measurement": "uptake in the brain region with CB2R overexpression compared to [18F]MA3", "setting": "hCB2R(D80N); [6]", "value": "about five-fold"}]}
